From EPA's CvTdb concentration-time database

Experiments:
Rat [1] = experiment: concentration in plasma after dosing; conditions: 2 min; dosed: 2-Methyltetrahydrofuran; 40 mg/kg; iv; Male; Harlan Sprague Dawley
Rat [2] = experiment: concentration in brain after dosing; conditions: 4 h; dosed: 2-Methyltetrahydrofuran; 40 mg/kg; iv; Female; Harlan Sprague Dawley
Rat [3] = experiment: concentration in plasma after dosing; conditions: 1.5 h; dosed: 2-Methyltetrahydrofuran; 40 mg/kg; iv; Male; Harlan Sprague Dawley
Rat [4] = experiment: concentration in brain after dosing; conditions: 2 h; dosed: 2-Methyltetrahydrofuran; 40 mg/kg; iv; Male; Harlan Sprague Dawley
Rat [5] = experiment: concentration in plasma after dosing; conditions: 0.75 h; dosed: 2-Methyltetrahydrofuran; 40 mg/kg; iv; Male; Harlan Sprague Dawley
Rat [6] = experiment: concentration in brain after dosing; conditions: 2 h; dosed: 2-Methyltetrahydrofuran; 40 mg/kg; iv; Female; Harlan Sprague Dawley
Rat [7] = experiment: concentration in brain after dosing; conditions: 6 h; dosed: Fluorotelomer alcohol 8+2; 24 mg/kg; oral; Male; Harlan Sprague Dawley
Rat [8] = experiment: concentration in kidney after dosing; conditions: 0.5 h; dosed: Fluorotelomer alcohol 8+2; 80 mg/kg; oral; Female; Harlan Sprague Dawley
Rat [9] = experiment: concentration in liver after dosing; conditions: 12 h; dosed: Fluorotelomer alcohol 8+2; 24 mg/kg; oral; Male; Harlan Sprague Dawley
Rat [10] = experiment: concentration in plasma after dosing; conditions: dosed: Fluorotelomer alcohol 8+2, 12 mg/kg, oral, Male, Harlan Sprague Dawley
Rat [11] = experiment: concentration in kidney after dosing; conditions: 3 h; dosed: Fluorotelomer alcohol 8+2; 24 mg/kg; oral; Male; Harlan Sprague Dawley
Rat [12] = experiment: concentration in plasma after dosing; conditions: 18 h; dosed: Gemfibrozil; 4.29 mg/kg; oral; Male; Sprague-Dawley
Rat [13] = experiment: concentration in plasma after dosing; conditions: 15 h; dosed: Gemfibrozil; 4.29 mg/kg; oral; Male; Sprague-Dawley
Rat [14] = experiment: concentration in plasma after dosing; conditions: 4 h; dosed: Gemfibrozil; 50 mg/kg; oral; Male; Sprague-Dawley
Rat [15] = experiment: concentration in plasma after dosing; conditions: dosed: Perfluorohexanoic Acid, 40 mg/kg, iv, Male, F344
Rat [16] = experiment: concentration in plasma after dosing; conditions: dosed: Perfluorohexanoic Acid, 40 mg/kg, oral, Male, Harlan Sprague Dawley
Rat [17] = experiment: concentration in plasma after dosing; conditions: dosed: Perfluorohexanoic Acid, 40 mg/kg, oral, Male, Harlan Sprague Dawley; remark: listed apart in the source
Rat [18] = experiment: concentration in liver after dosing; conditions: 6 h; dosed: Perfluorohexanoic Acid; 80 mg/kg; oral; Female; Harlan Sprague Dawley
Rat [19] = experiment: concentration in liver after dosing; conditions: 12 h; dosed: Perfluorohexanoic Acid; 80 mg/kg; oral; Male; Harlan Sprague Dawley
Rat [20] = experiment: concentration in liver after dosing; conditions: 3360 h; dosed: Perfluorooctane Sulfonate; 2 mg/kg; oral; Female; Harlan Sprague Dawley
Rat [21] = experiment: concentration in liver after dosing; conditions: 6 h; dosed: Perfluorooctane Sulfonate; 20 mg/kg; oral; Female; F344
Rat [22] = experiment: concentration in plasma after dosing; conditions: dosed: Perfluorooctane Sulfonate, 2 mg/kg, iv, Female, Harlan Sprague-Dawley
Rat [23] = experiment: concentration in kidney after dosing; conditions: 864 h; dosed: Perfluorooctane Sulfonate; 2 mg/kg; oral; Female; Harlan Sprague Dawley
Rat [24] = experiment: concentration in brain after dosing; conditions: 6 h; dosed: Perfluorooctane Sulfonate; 20 mg/kg; oral; Female; F344
Rat [25] = experiment: concentration in plasma after dosing; conditions: dosed: Perfluorooctane Sulfonate, 2 mg/kg, iv, Male, F344
Rat [26] = experiment: concentration in kidney after dosing; conditions: 3360 h; dosed: Perfluorooctane Sulfonate; 20 mg/kg; oral; Male; Harlan Sprague Dawley

CC1CCCO1 (stereo not drawn) [2-Methyltetrahydrofuran]
Conditions | concentration in brain [ng/mL] | concentration in plasma [ng/mL]
Rat [1] | – | 59400
Rat [2] | 111 | –
Rat [3] | – | 12000
Rat [4] | 7820 | –
Rat [5] | – | 26900
Rat [6] | 9940 | –

O=C(O)CCC(F)(F)C(F)(F)C(F)(F)C(F)(F)C(F)(F)C(F)(F)C(F)(F)F [Fluorotelomer acid 7+3]
Conditions | concentration in brain [ng/g] | concentration in kidney [ng/g] | concentration in liver [ng/g]
Rat [7] | 179 | – | –
Rat [8] | – | 435 | –
Rat [9] | – | – | 1580
Rat [11] | – | 1450 | –

Rat [10]
Conditions | concentration in plasma [ng/mL]
0.25 h | 152
6 h | 522

Cc1ccc(C)c(OCCCC(C)(C)C(=O)O)c1 [Gemfibrozil]
Conditions | concentration in plasma [ng/mL]
Rat [12] | 287
Rat [13] | 285
Rat [14] | 2860

O=C(O)C(F)(F)C(F)(F)C(F)(F)C(F)(F)C(F)(F)F [Perfluorohexanoic Acid]
Conditions | concentration in plasma [ng/mL]
Rat [15], 0.5 h | 23200
Rat [15], 12 h | 120
Rat [16], 0.25 h | 54000
Rat [16], 6 h | 31300
Rat [17], 0.75 h | 78200
Rat [17], 12 h | 5210

Conditions | concentration in liver [ng/g]
Rat [18] | 820
Rat [19] | 1910

O=S(=O)([O-])C(F)(F)C(F)(F)C(F)(F)C(F)(F)C(F)(F)C(F)(F)C(F)(F)C(F)(F)F [Perfluorooctane Sulfonate]
Conditions | concentration in brain [ng/g] | concentration in kidney [ng/g] | concentration in liver [ng/g]
Rat [20] | – | – | 4340
Rat [21] | – | – | 139000
Rat [23] | – | 2960 | –
Rat [24] | 3990 | – | –
Rat [26] | – | 4360 | –

concentration in plasma [ng/mL]
Conditions | 1 h | 12 h | 192 h | 864 h | 1704 h
Rat [22] | 4460 | – | 2800 | – | 848
Rat [25] | – | 4880 | – | 2120 | –
